Series [1] is described as follows: Physicochemical properties (Log P, pKa, solubility vs. pH) for PBPK model. The source says: (§1) The physicochemical and biopharmaceutical properties for elacestrant dihydrochloride and its free base, elacestrant, were defined using a combination of in silico estimates from the ADMET Predictor® module that were based on the chemical structure, along with in vitro and in vivo data obtained from the literature and internal data. Table 5 summarizes the parameter values used for the elacestrant dihydrochloride […] pharmacokinetics (PBPK) model.
The solubility vs. pH profile is solved using conventional methods known to those in the art and using the measure pKa values for elacestrant (Table 5). The pHmax for elacestrant is 4.3. These values were used to model in vitro drug product dissolution. The in vivo solubility values of elacestrant dihydrochloride are calculated as a function of the volume administered and the food volume, where relevant.

A short description of series [2]: Exposure-response (ER) analysis for PFS. The format is in vivo, human. Conditions: non-parametric and parametric survival analysis.
The test system of series [3] is ER-positive (ER+) HER2-negative (HER2−) breast cancer cells. Particulars: at concentrations inducing degradation of ERα protein; cited from earlier work.
Series [4] deals with ER+HER2-breast cancer models. Conditions: including models resistant to fulvestrant and CDK4/6 inhibitors and those harboring ESR1 mutations; cited from earlier work.
Series [5] is described as follows: Compressibility study (strain rate sensitivity). The format is physicochemical. On the procedure:
To investigate the behavior of elacestrant dihydrochloride under mechanical stress, a compressibility study was performed. […] Thus, deformation was expected to be affected by speed. Crushing strength was rather low at slow speed and decreased as speed increased due to elastic recovery. […] The insights and recommendations from this work led to careful selection of excipients to keep tablet strength high for tablets with drug loads above 25%.

Series [6] can be described thus: Dissolution in media of pH 1.2, 2.0 (QC), 4.5 and 6.8 with f2 analysis. The series is classed as physicochemical. Conditions: pH 6.8 (phosphate buffer); dihydrochloride. On the procedure: Dissolution profiles for Formulation 2 at the target hardness (13.3 kP and 16.4 kP for 100 mg and 400 mg tablets, respectively), were generated using testing conditions that represented the physiological range of pH 1.2 (0.1 N HCl) to pH 6.8 (phosphate buffer), as well as in the QC medium (0.01 N HCl) and at pH 4.5 (acetate buffer). The dissolution profiles under these various conditions are shown in FIGS. 11A-D (100 mg tablets) and FIGS. 12A-D (400 mg tablets).
FIGS. 13A-D compare the dissolution profiles of the elacestrant dihydrochloride 100 mg drug product used in the Pivotal BE study under 4 different dissolution conditions. […] At the highest tested pH (pH 6.8) the solubility of the drug is so low that this test condition is not a reliable method for testing the dissolution of elacestrant dihydrochloride 100 mg tablets. The curves were compared using f2 analysis. […] Although the data at pH 6.8 also indicate the two curves are similar, the percent released was so low that this comparison was not of any value.

Series [7] is described as follows: Human blood-to-plasma ratio. The format is in vitro ADME. Conditions: blood and plasma, RAD1901-111, read-out: Human blood-to-plasma ratio, initial value.
From the text: as §1

Series [8] in a line: Human effective jejunal permeability. Conditions: Caco-2, scaled from in vitro Caco2 data, read-out: Human effective jejunal permeability, initial value.
From the text: as §1
In general terms: Passage across Caco-2 layers is used to estimate intestinal permeability.

Structures are written as SMILES. Entries after “also recorded” stand apart in the source; their conditions may differ. Where a name gives a salt, the structure may show the parent alone.

The source of these data is patent publication US20260199249A1, “SOLID ELACESTRANT DIHYDROCHLORIDE COMPOSITIONS, METHODS OF MAKING THE SAME, AND METHODS OF TREATMENT USING THE SAME” (BERLIN-CHEMIE AG, priority 2023, published 2026).

With `CCNCCc1ccc(CN(CC)c2cc(OC)ccc2[C@@H]2CCc3cc(O)ccc3C2)cc1` [Elacestrant], in series [1], the pHmax worked out at 4.3. Besides, the solubility (commonly the concentration that dissolves in the medium under given conditions) in series [1] (free base, pH = 10, read-out: Intrinsic solubility) came to 0.000115 mg/mL. Further, the “exposure-response for PFS (progression-free survival)” value in series [2] is “no differences in PFS across the observed range of elacestrant exposures”. The “17β-estradiol mediated cell proliferation” value in series [3] is “inhibited 17β-estradiol mediated cell proliferation”. Further, the antitumor activity entry in series [4] was “demonstrated in vitro and in vivo antitumor activity”.

The compound `CCNCCc1ccc(CN(CC)c2cc(OC)ccc2[C@@H]2CCc3cc(O)ccc3C2)cc1` [Elacestrant Dihydrochloride, (6R)-6-(2-(N-(4-(2-(ethylamino)ethyl)benzyl)-N-ethylamino)-4-methoxyphenyl)-5,6,7,8-tetrahydronaphthalen-2-ol dihydrochloride] came in with a strain rate sensitivity in series [5] of 15.5%. The solubility result was “significantly lower; also recorded: so low” in series [6]; “feely soluble” in series [1] (0.01 N HCl); 39.4 mg/mL in series [1] (salt, pH = 4.3, read-out: Intrinsic solubility). Besides, the logP – broadly, a log measure of how a compound divides between an organic and an aqueous phase – in series [1] is 5.56. Also, the pKa (commonly the negative logarithm of the acid dissociation constant) in series [1] ((A)) was 12; in series [1] ((B), first), 6.39; in series [1] ((B), second) it was 7.74. Also, the blood plasma ratio in series [7] worked out at 0.701. Further, the Papp in series [8] turned out to be 32 ×10⁻⁶ cm/s.
